SMILES strings stand for the structures.

This test addresses T1, recombinant human Flag-tagged PARP7 (amino acids 456-657) (Homo sapiens, UniProt Q7Z3E1).
T1 construct: recombinant human Flag-tagged PARP7 (amino acids 456-657)
T1 sequence (Q7Z3E1 456-657): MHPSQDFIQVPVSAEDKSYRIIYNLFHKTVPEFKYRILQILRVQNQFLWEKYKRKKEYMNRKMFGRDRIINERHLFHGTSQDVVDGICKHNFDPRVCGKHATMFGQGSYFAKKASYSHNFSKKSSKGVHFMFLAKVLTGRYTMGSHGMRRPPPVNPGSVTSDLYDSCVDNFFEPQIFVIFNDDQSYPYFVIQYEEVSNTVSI
The test can be described thus: PARP7 biochemical DELFIA assay (auto-MARylation). Particulars: DELFIA readout, IC50 class. The method in brief:
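Readout is DELFIA time-resolved Eu fluorescence (Ex337 nm, Em620 nm) of biotin-ADP-ribose on immobilised Flag-tagged PARP7 456-657. Enzyme (12.5-37.5 nM as added) sat 30 min with compound before biotin-NAD+ (15 μM solution, pH 7.5 HEPES buffer) started 2-3 h room-temperature self-modification, stopped with excess NAD+.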
The IC50 is the concentration needed to halve the response being measured. As to `CC(OCCCC(=O)N1CCN(c2ncc(C(F)(F)F)cn2)CC1)c1cc(Cl)cc2c(=O)[nH]ncc12` (single isomer, unassigned) [Compound 174, 7-chloro-5-(1-(4-oxo-4-(4-(5-(trifluoromethyl)pyrimidin-2-yl)piperazin-1-yl)butoxy)ethyl)phthalazin-1(2H)-one], the IC50 was at most 0.1 µM.
As to `CC(CCOCC(=O)N1CCN(c2ncc(C(F)(F)F)cn2)CC1)n1cc(C(F)(F)F)c2c(=O)[nH]ncc21` (stereo not shown) [Compound 454], the IC50 is at most 0.1 µM.
With `CC(COCCC(=O)N1CCN(c2ccc(Cl)cn2)CC1)n1cc(C(F)(F)F)c2c(=O)[nH]ncc21` (stereo not shown) [Compound 374], the IC50 was at most 0.1 µM.
`O=C(CCOCCc1cccc2c(=O)[nH]ncc12)N1CCN(c2ccc(Cl)cn2)CC1` [Compound 96]: the IC50 is at most 0.1 µM.
As for `O=C(CCOCCn1nc(C(F)(F)F)c2c(=O)[nH]ncc21)N1CCN(c2nc3ccc(F)cc3o2)CC1` [Compound 183], the figure is at most 0.1 µM; as for `CC(COCCC(=O)N1CCN(c2cc(C(F)(F)F)on2)CC1)n1nc(C(F)(F)F)c2c(=O)[nH]ncc21` (single isomer, unassigned) [Compound 429], at most 0.1 µM; as for `CC1CN(c2ccc(C#N)cn2)CCN1C(=O)CCOCCc1cccc2c(=O)[nH]ncc12` (single isomer, unassigned) [Compound 86], at most 0.1 µM.
For `O=C(CCOCCc1cccc2c(=O)[nH]ncc12)N1CCN(c2ccc(C(F)(F)F)cc2)C(=O)C1` [Compound 207], the 50% inhibitory concentration (IC50) fell in the range of 0.1 to 1 µM.
In the case of `CC(COCCC(=O)N1CCN(c2cc(Cl)c(F)cn2)CC1)n1nc(C(F)(F)F)c2c(=O)[nH]ncc21` (single isomer, unassigned) [Compound 444], the 50% inhibitory concentration (IC50) was at most 0.1 µM.
In the case of `N#Cc1ccc(N2CCN(C(=O)CCOCCN3CCCc4c3cn[nH]c4=O)CC2)nc1` [Compound 44], the IC50 was at most 0.1 µM.
Then `O=C(CCOCC(F)(F)c1cccc2c(=O)[nH]ncc12)N1CCN(c2ncc(C(F)(F)F)cn2)CC1` [Compound 424], with at most 0.1 µM; and `CC1CN(c2ncc(C(F)(F)F)cn2)CCN1C(=O)CCOCCn1nc(C(F)(F)F)c2c(=O)[nH]ncc21` (stereo not shown) [Compound 161], with at most 0.1 µM.
Regarding `CC(COCCC(=O)N1CCN(c2ncc(C#N)cn2)CC1)n1nc(C(F)(F)F)c2c(=O)[nH]ncc21` (single isomer, unassigned) [Compound 321, 2-(4-(3-(2-(4-oxo-3-(trifluoromethyl)-4,5-dihydro-1H-pyrazolo[3,4-d]pyridazin-1-yl)propoxy)propanoyl)piperazin-1-yl) pyrimidine-5-carbonitrile], the IC50 is at most 0.1 µM.
Turning to `N#Cc1ccc2nc(N3CCN(C(=O)CCOCCn4cc(C(F)(F)F)c5c(=O)[nH]ncc54)CC3)oc2c1` [Compound 362], the IC50 is at most 0.1 µM.
On to `CC(CCOCC(=O)N1CCN(c2ccc(C#N)cn2)CC1)n1cc(C(F)(F)F)c2c(=O)[nH]ncc21` (single isomer, unassigned) [Compound 494], for which the IC50 was at most 0.1 µM.
For the molecule `CC(COCCC(=O)N1CCN(c2ncc(Cl)cn2)CC1)n1cc(C(F)F)c2c(=O)[nH]ncc21` (stereo not shown) [Compound 451], the IC50 was at most 0.1 µM.
With `CC(COCCC(=O)N1CCN(c2ncc(C(F)(F)F)cn2)CC1)n1nc(C(F)F)c2c(=O)[nH]ncc21` (single isomer, unassigned) [Compound 436], the concentration for half-maximal inhibition (IC50) is at most 0.1 µM.
For the molecule `CC(COCCC(=O)N1CCN(c2cc(F)c(F)cn2)CC1)n1nc(C(F)(F)F)c2c(=O)[nH]ncc21` (single isomer, unassigned) [Compound 418], the IC50 was at most 0.1 µM.
Consider `CC(COCCn1ncc2c(=O)[nH]ncc21)C(=O)N1CCN(c2ncc(C(F)(F)F)cn2)CC1` (stereo not shown) [Compound 155], for which the IC50 is at most 0.1 µM.
Then `O=C(CCOCCn1nc(C(F)F)c2c(=O)[nH]ncc21)N1CCN(c2ncc(C(F)(F)F)cn2)CC1` [Compound 236, 3-(difluoromethyl)-1-(2-(3-oxo-3-(4-(5-(trifluoromethyl)pyrimidin-2-yl)piperazin-1-yl)propoxy)ethyl)-1,5-dihydro-4H-pyrazolo[3,4-d]pyridazin-4-one], with at most 0.1 µM; and `CC(C)c1nn(CCOCCC(=O)N2CCN(c3ncc(C(F)(F)F)cn3)CC2)c2cn[nH]c(=O)c12` [Compound 154], with at most 0.1 µM.
With `O=C(CCOCCn1nc(C(F)(F)F)c2c(=O)[nH]ncc21)N1CCN(c2ncc(C(F)(F)F)o2)CC1` [Compound 383], the IC50 was at most 0.1 µM.
Consider `O=C(CCOCC(c1cccc2c(=O)[nH]ncc12)C(F)(F)F)N1CCN(c2ncc(C(F)(F)F)cn2)CC1` (single isomer, unassigned) [Compound 427], for which the IC50 lay within 0.1 to 1 µM.
Then `CCC(COCCC(=O)N1CCN(c2ncc(C(F)(F)F)cn2)CC1)n1nc(C(F)(F)F)c2c(=O)[nH]ncc21` (stereo not shown) [Compound 298], with at most 0.1 µM.
In the case of `CC(COCCC(=O)N1CCN(c2ncc(C(C)(C)C)cn2)CC1)n1nc(C(F)(F)F)c2c(=O)[nH]ncc21` (single isomer, unassigned) [Compound 501], the IC50 was at most 0.1 µM.
In the case of `CC(COCCC(=O)N1CCN(c2cnc(C(F)F)cn2)CC1)n1nc(C(F)(F)F)c2c(=O)[nH]ncc21` (single isomer, unassigned) [Compound 324], the IC50 is at most 0.1 µM.
On to `CC(COCCC(=O)N1CCN(c2ccc(C#N)cn2)CC1)n1cc(C(F)(F)F)c2c(=O)[nH]ncc21` (single isomer, unassigned) [Compound 431], for which the IC50 is at most 0.1 µM.
As to `O=C(c1cccc(OCc2cccc3c(=O)[nH]ncc23)c1)N1CCN(c2ncc(C(F)(F)F)cn2)CC1` [Compound 94], the IC50 was 1 to 10 µM.
For the molecule `N#Cc1ccc(N2CCN(C(=O)CCOCCn3c(C(F)(F)F)cc4c(=O)[nH]ncc43)CC2)nc1` [Compound 78], the IC50 is 0.1 to 1 µM.
Turning to `CC(COCCC(=O)N1CCN(c2ncccc2F)CC1)n1nc(C(F)(F)F)c2c(=O)[nH]ncc21` (stereo not shown) [Compound 369], the IC50 was at most 0.1 µM.
Turning to `N#Cc1cn(CCOCCC(=O)N2CCN(c3ncc(C(F)(F)F)cn3)CC2)c2cn[nH]c(=O)c12` [Compound 340], the IC50 was at most 0.1 µM.
For the molecule `CC(COCCC(=O)N1CCN(c2ncc(C(F)(F)F)cn2)CC1)c1cc(F)cc2c(=O)[nH]ncc12` (stereo not shown) [Compound 120], the IC50 was at most 0.1 µM.
As to `COc1cnc(N2CCN(C(=O)CCOCC(C)n3nc(C(F)(F)F)c4c(=O)[nH]ncc43)CC2)nc1` (single isomer, unassigned) [Compound 332], the IC50 is at most 0.1 µM.
Take `O=C(CCOCCn1nc(C(F)(F)F)c2c(=O)[nH]ncc21)N1CCN(c2nc3cc(Cl)ccc3o2)CC1` [Compound 171]: the IC50 was at most 0.1 µM.
Take `CC(COCCC(=O)N1CCN(c2ccc(OC(F)F)cn2)CC1)n1nc(C(F)(F)F)c2c(=O)[nH]ncc21` (single isomer, unassigned) [Compound 274]: the IC50 was at most 0.1 µM.
As to `N#Cc1ccc(N2CCN(C(=O)c3cccc(CN4CCOc5c4cn[nH]c5=O)c3)CC2)nc1` [Compound 11], the 50% inhibitory concentration (IC50) is 1 to 10 µM.
As for `N#Cc1ccc(N2CCN(C(=O)CCOCCn3ncc4c(=O)[nH]ncc43)CC2)nc1` [Compound 92], the figure is 0.1 to 1 µM.

(Values after patent publication US20240217968A1, “PHARMACEUTICAL COMPOUND” (DUKE STREET BIO LIMITED, priority 2021, published 2024).)
